Source: patent US20240239806A1, “COMPOUNDS, COMPOSITIONS AND METHODS OF TREATING DISORDERS” (Chengdu Anticancer Bioscience, Ltd., priority 2021, published 2024)
“Also recorded” adds a separate entry of the source. Where two headings read alike, the source gives them in different places.

Assays:
[1] = test system: cervical cancer cell line Hela; assay: Soft agar colony formation assay; assay type: cell-based, human
Excerpt: (§1) Measuring the ability of cells to grow in soft agar has been popularly believed as the gold standard assay for cellular transformation in vitro. In the Soft Agar Assay, cells grow from single cells to cell colonies in a semi-solid agar solution that keeps them away from the solid surface and allows growth in an anchorage-independent way.
(§2) The anchorage-independent growth of cells is one of the hallmarks of cancer cells. Normal epithelial cells are supported by basement membranes that provide survival and proliferative signals while undergo a type of apoptosis called anoikis when lose their attachment to the extracellular matrix. Cancer cells, in contrast, evade detachment-induced apoptosis, leading to uncontrolled proliferation and metastasis. The Soft Agar Colony Formation Assay allows testing of the therapeutic efficacy of compounds against anchorage-independent 3D growth of cancer cells in vin. The assay was performed in 6-well plates with two layers of agar. For the first, 0.75% agar in DMEM medium was melted in a microwave oven and poured to form a bottom layer. Once solidified, 10-100K cells in 1 ml of DMEM containing 0.35% agar was added to form the top layer, which was later covered with 0.5 ml of DMEM. Cell culture medium was changed once every two days until colonies were ready to photograph. We test the antitumor activity of select compounds in soft agar colony formation assays. […] The suppression of growth of these three cancer cell lines in 3D culture is consistent with the potent impact of these compounds on cellular proliferation in 2D culture.

T98G [2] = assay: MTT assay of cellular proliferation; assay type: cell-based; details: Homo sapiens, 50% inhibition of cellular proliferation
Outline: (§3)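 Cells in DMEM with 5% FBS, seeded to 20–30% confluence over 15–24 h, then exposed to compound from 1 nM to 30 μM. MTT added at endpoint for 3–4 h, formazan solubilized and read at A570. EC50 taken as concentration giving 50% inhibition of proliferation.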

Hela [3] = assay: MTT assay of cellular proliferation; assay type: cell-based; details: Homo sapiens, 50% inhibition of cellular proliferation
Outline: as §3

HCT116 [4] = assay: MTT assay of cellular proliferation; assay type: cell-based; details: Homo sapiens, HCT-116, 50% inhibition of cellular proliferation
Outline: as §3

NCI-H460 [5] = assay: MTT assay of cellular proliferation; assay type: cell-based; details: Homo sapiens, 50% inhibition of cellular proliferation
Outline: as §3

T2 HCC [6] = assay: MTT assay of cellular proliferation; assay type: cell-based; details: Mus musculus, 50% inhibition of cellular proliferation
Outline: as §3

NCI-H23 [7] = assay: MTT assay of cellular proliferation; assay type: cell-based; details: Homo sapiens, 50% inhibition of cellular proliferation
Outline: as §3

NCI-H596 [8] = assay: MTT assay of cellular proliferation; assay type: cell-based; details: Homo sapiens, 50% inhibition of cellular proliferation
Outline: as §3

MDA-MB-231 [9] = assay: MTT assay of cellular proliferation; assay type: cell-based; details: Homo sapiens; MDA-MB-231, MTT, 50% inhibition of cellular proliferation
Outline: as §3

Human Cancer Cells = assay: Anchorage-independent growth in 3D culture (FIG. 3); assay type: cell-based; details: FIG. 3 legend, cell line not named
Excerpt: as §1, §2

T98G [10] = assay: MECP in cancer cell line; assay type: cell-based; details: Homo sapiens
Outline: (§4)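 Cancer lines were grown in DMEM with 5% FBS, 2 mM L-glutamine and 1 mM sodium pyruvate at 37 °C, 5% CO2, then exposed to compound from 1 nM to 30 μM. High-content imaging at 24, 48 or 72 h scored mitotic arrest or DNA-content change; values binned A–D.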

Hela [11] = assay: MECP in cancer cell line; assay type: cell-based; details: Homo sapiens
Outline: as §4

HCT116 [12] = assay: MECP in cancer cell line; assay type: cell-based; details: Homo sapiens, HCT-116
Outline: as §4

NCI-H460 [13] = assay: MECP in cancer cell line; assay type: cell-based; details: Homo sapiens
Outline: as §4

T2 HCC [14] = assay: MECP in cancer cell line; assay type: cell-based; details: Mus musculus
Outline: as §4

NCI-H596 [15] = assay: MECP in cancer cell line; assay type: cell-based; details: Homo sapiens
Outline: as §4

MDA-MB-231 [16] = assay: MECP in cancer cell line; assay type: cell-based; details: Homo sapiens
Outline: as §4

RPEMYC^H2B-GFP cells = assay: Phenotypic screening assay (mitotic arrest, polyploidy); assay type: cell-based; details: 1 nM to 30 μM; for IC50: read-out: Proliferative arrest (>50%)
Outline: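 RPE cells expressing MYC and H2B-EGFP treated with compound at 1 nM–30 μM; mitotic index scored at 24 h and polyploidy (DNA content) at 48 h by automated imaging, with reads at 24, 48 or 72 h. Hits show transient mitotic arrest followed by polyploid accumulation.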

NCI-H23 [17] = assay: MECP in cancer cell line; assay type: cell-based; details: Homo sapiens
Outline: as §4

A549 [18] = assay: MTT assay of cellular proliferation; assay type: cell-based; details: Homo sapiens, 50% inhibition of cellular proliferation
Outline: as §3

SW480 [19] = assay: MTT assay of cellular proliferation; assay type: cell-based; details: Homo sapiens, 50% inhibition of cellular proliferation
Outline: as §3

NCI-N87 [20] = assay: MTT assay of cellular proliferation; assay type: cell-based; details: Homo sapiens, 50% inhibition of cellular proliferation
Outline: as §3

A549 [21] = assay: MECP in cancer cell line; assay type: cell-based; details: Homo sapiens
Outline: as §4

SW480 [22] = assay: MECP in cancer cell line; assay type: cell-based; details: Homo sapiens
Outline: as §4

[23] = test system: human lung adenocarcinoma cell line NCI-H23; assay: Xenograft assay; assay type: in vivo; details: Nu/Nu mice, 25 mg/kg oral gavage twice a day for 7 days
Experimental: (§5) Xenografts were initiated in immunocompromised (Nu/Nu) mice with the human lung adenocarcinoma cell line NCI-H23 (FIG. 4A) and the human breast cancer cell line MDA-MB-231 (FIG. 4B). Seven million cells were injected subcutaneously into each mouse and treatment was initiated when the average tumor volumes reached 150 mm3 (n=5/group). Tumor-bearing mice were randomized into different groups to receive either vehicle or indicated compounds. The compounds were administered through oral gavage twice a day for 7 days. For these experiments, all compounds were first dissolved in DMSO and then diluted 1:10 into a mixture containing 50% PEG300 and 49% PBS, 1% Tween 80, pH2.2. 100 ul of drug solution was administered with each dose to each a dose of 25 mg/kg. Tumor volumes were determined from digital caliper raw data by using the formula: Volume (mm3)=(L×W^2)/2. The value W (Width) is the smaller of two perpendicular tumor axes and the value L (Length) is the larger of two perpendicular axes. Mean tumor volumes were calculated for each treatment group at the start point (day 0) and the endpoint (day 7). The percentage change of tumor volumes, defined as (Tumor […]˜Tumor Volume^day0)/Tumor Volume^day0×100% is presented.

[24] = test system: human breast cancer cell line MDA-MB-231; assay: Xenograft assay; assay type: in vivo; details: MDA-MB-231 xenograft, Nu/Nu mice, 25 mg/kg oral gavage twice a day for 7 days
Experimental: as §5

NCI-N87 [25] = assay: MECP in cancer cell line; assay type: cell-based; details: Homo sapiens
Outline: as §4

[26] = read-out: Min. Effective conc. for Polyploidy (≥5%)

COC(=O)c1cc(OC)cc(Oc2ccnc3ccccc23)c1 [Compound 8, Methyl 3-methoxy-5-(quinolin-4-yloxy)benzoate]
anchorage-independent growth in soft agar [1]: effectively suppressed the anchorage-independent growth
EC50 (T98G [2]): 1 to 10 µM
EC50 (Hela [3]): 1 to 1000 nM
EC50 (HCT116 [4]): 1 to 1000 nM
EC50 (NCI-H460 [5]): > 30 µM
EC50 (T2 HCC [6]): 1 to 1000 nM
EC50 (NCI-H23 [7]): 1 to 1000 nM
EC50 (NCI-H596 [8]): 1 to 10 µM
EC50 (MDA-MB-231 [9]): 1 to 1000 nM
Anchorage-independent Growth of Human Cancer Cells in 3D Culture (Human Cancer Cells): Suppress the Anchorage-independent Growth
minimal effective concentration (T98G [10]): 1 to 10 µM
minimal effective concentration (Hela [11]): 0.001 to 1 µM
minimal effective concentration (HCT116 [12]): 0.001 to 1 µM
minimal effective concentration (NCI-H460 [13]): 1 to 10 µM
minimal effective concentration (T2 HCC [14]): 0.001 to 1 µM
minimal effective concentration (NCI-H596 [15]): 0.001 to 1 µM
minimal effective concentration (MDA-MB-231 [16]): 0.001 to 1 µM
minimal effective concentration (RPEMYC^H2B-GFP cells; [26]): 0.001 to 1 µM
minimal effective concentration (RPEMYC^H2B-GFP cells; read-out: Mitotic Arrest (≥5%)): 0.001 to 1 µM
IC50 (RPEMYC^H2B-GFP cells): 1 to 1000 nM
minimal effective concentration (NCI-H23 [17]): 0.001 to 1 µM

COC(=O)c1cc(Oc2ccnc3ccccc23)cc(C(=O)OC)c1 [Compound 15, dimethyl 5-(quinolin-4-yloxy)isophthalate]
anchorage-independent growth in soft agar [1]: effectively suppressed the anchorage-independent growth
EC50 (T98G [2]): 1 to 10 µM
EC50 (Hela [3]): 1 to 1000 nM
EC50 (HCT116 [4]): 1 to 1000 nM
EC50 (NCI-H460 [5]): > 30 µM
EC50 (T2 HCC [6]): 1 to 1000 nM
EC50 (NCI-H23 [7]): 1 to 1000 nM
EC50 (NCI-H596 [8]): 1 to 10 µM
EC50 (MDA-MB-231 [9]): 1 to 1000 nM
Anchorage-independent Growth of Human Cancer Cells in 3D Culture (Human Cancer Cells): Suppress the Anchorage-independent Growth
minimal effective concentration (T98G [10]): 1 to 10 µM
minimal effective concentration (Hela [11]): 0.001 to 1 µM
minimal effective concentration (HCT116 [12]): 0.001 to 1 µM
minimal effective concentration (NCI-H460 [13]): 1 to 10 µM
minimal effective concentration (T2 HCC [14]): 0.001 to 1 µM
minimal effective concentration (NCI-H596 [15]): 0.001 to 1 µM
minimal effective concentration (MDA-MB-231 [16]): 0.001 to 1 µM
minimal effective concentration (RPEMYC^H2B-GFP cells; [26]): 0.001 to 1 µM
minimal effective concentration (RPEMYC^H2B-GFP cells; read-out: Mitotic Arrest (≥5%)): 0.001 to 1 µM
IC50 (RPEMYC^H2B-GFP cells): 1 to 1000 nM
minimal effective concentration (NCI-H23 [17]): 0.001 to 1 µM

COc1cc(Oc2ccnc3ccc(Br)cc23)cc(-n2cccn2)c1 [Compound 21, 6-bromo-4-(3-methoxy-5-(1H-pyrazol-1-yl)phenoxy)quinoline]
EC50 (A549 [18]): 1 to 1000 nM
EC50 (Hela [3]): 1 to 1000 nM
EC50 (HCT116 [4]): 1 to 1000 nM
EC50 (SW480 [19]): 1 to 1000 nM
EC50 (NCI-N87 [20]): 1 to 1000 nM
EC50 (T2 HCC [6]): 1 to 1000 nM
EC50 (NCI-H23 [7]): 1 to 1000 nM
EC50 (MDA-MB-231 [9]): 1 to 1000 nM
minimal effective concentration (A549 [21]): 0.001 to 1 µM
minimal effective concentration (Hela [11]): 0.001 to 1 µM
minimal effective concentration (HCT116 [12]): 0.001 to 1 µM
minimal effective concentration (SW480 [22]): 0.001 to 1 µM
minimal effective concentration (T2 HCC [14]): 0.001 to 1 µM
minimal effective concentration (MDA-MB-231 [16]): 0.001 to 1 µM
minimal effective concentration (RPEMYC^H2B-GFP cells; [26]): 0.001 to 1 µM
minimal effective concentration (RPEMYC^H2B-GFP cells; read-out: Mitotic Arrest (≥5%)): 0.001 to 1 µM
IC50 (RPEMYC^H2B-GFP cells): 1 to 1000 nM
tumor growth (percentage change of tumor volumes) [23]: suppress the growth; also recorded: suppressing the tumor growth
tumor growth (percentage change of tumor volumes) [24]: suppress the growth; also recorded: suppressing the tumor growth
minimal effective concentration (NCI-N87 [25]): 0.001 to 1 µM
minimal effective concentration (NCI-H23 [17]): 0.001 to 1 µM

COc1cc(Oc2ccnc3cc(OC)c(OC)cc23)cc(-n2cccn2)c1 [Compound 26, 6,7-dimethoxy-4-(3-methoxy-5-(1H-pyrazol-1-yl)phenoxy)quinoline]
EC50 (A549 [18]): 1 to 1000 nM
EC50 (Hela [3]): 1 to 1000 nM
EC50 (HCT116 [4]): 1 to 1000 nM
EC50 (SW480 [19]): 1 to 1000 nM
EC50 (NCI-N87 [20]): 1 to 1000 nM
EC50 (T2 HCC [6]): 1 to 1000 nM
EC50 (NCI-H23 [7]): 1 to 1000 nM
EC50 (MDA-MB-231 [9]): 1 to 1000 nM
minimal effective concentration (A549 [21]): 0.001 to 1 µM
minimal effective concentration (Hela [11]): 0.001 to 1 µM
minimal effective concentration (HCT116 [12]): 0.001 to 1 µM
minimal effective concentration (SW480 [22]): 0.001 to 1 µM
minimal effective concentration (T2 HCC [14]): 0.001 to 1 µM
minimal effective concentration (MDA-MB-231 [16]): 0.001 to 1 µM
minimal effective concentration (RPEMYC^H2B-GFP cells; [26]): 0.001 to 1 µM
minimal effective concentration (RPEMYC^H2B-GFP cells; read-out: Mitotic Arrest (≥5%)): 0.001 to 1 µM
IC50 (RPEMYC^H2B-GFP cells): 1 to 1000 nM
tumor growth (percentage change of tumor volumes) [23]: suppress the growth; also recorded: suppressing the tumor growth
tumor growth (percentage change of tumor volumes) [24]: suppress the growth; also recorded: suppressing the tumor growth
minimal effective concentration (NCI-N87 [25]): 0.001 to 1 µM
minimal effective concentration (NCI-H23 [17]): 0.001 to 1 µM
